Assay results taken from paper PMC12169614, “Exploring Long Arm Amide-Linked Side Chains in the Design of Antifungal Azole Inhibitors of Sterol 14α-Demethylase (CYP51)” (Journal of Medicinal Chemistry, 2025).

Columns and labels:
[1] = test system: Y2513 ScCYP51 Y140H mutant; assay: Agarose (disk) diffusion assay, strain Y2513; format: cell-based, S. cerevisiae; conditions: 10 nmol/disk, 30 °C, 48 h
Text: (§1) Final compounds were screened as racemic mixtures using agarose diffusion assays to visualize their inhibitory activity against a panel of recombinant S. cerevisiae strains i.e., S. cerevisiae strains expressing control levels of wild-type CYP51 (ScCYP51), overexpressed wild-type ScCYP51, overexpressed azole-resistant ScCYP51 Y140F/H mutations and overexpressed C. albicans efflux pumps MDR1a or CDR1B (Figure and Table S1).
(§2) The susceptibilities of S. cerevisiae and Candida species strains to azole compounds were observed as zones of growth inhibition in agarose diffusion assays. The disk diffusion assays were carried out as described by Keniya et al. Complete supplement mixture (CSM) agarose (0.6% agarose [wt/vol]; 20 mL of synthetic defined medium (SD); pH 6.8–7) was solidified in a rectangular Petri dish which was overlaid with CSM agarose (0.6% [wt/vol]; 5 mL; pH 6.8–7) seeded with yeast cells at an optical density (OD600) of 0.008 (118,000 cells per 1 mL of overlay). Azole compounds (10 nmol/disk) were applied to sterile BBL paper disks (Becton Dickinson Co., Sparks, MD) and placed on solidified overlays. Cell growth was assessed after incubation at 30 °C for 48 h.

[2] = test system: Y525 MFS efflux pump CaMDR1a overexpressed; assay: Agarose (disk) diffusion assay, strain Y525; format: cell-based, S. cerevisiae; conditions: 10 nmol/disk, 30 °C, 48 h
Text: as §1, §2

[3] = test system: Y2301 ScCYP51 Y140F mutant; assay: Agarose (disk) diffusion assay, strain Y2301; format: cell-based, S. cerevisiae; conditions: 10 nmol/disk, 30 °C, 48 h
Text: as §1, §2

[4] = test system: Y2300 OE ScCYP51; assay: MIC80 determination, strain Y2300; format: cell-based, S. cerevisiae; conditions: Saccharomyces cerevisiae
Protocol: (§3) Cells were seeded at an OD600 nm of 0.005 (1.5 × 10^4 CFU), and the plates were incubated at 30 °C with shaking at 200 rpm for 48 h for S. cerevisiae strains and 24 h for C. albicans . Cell growth was assessed by measuring the OD600 nm using a Synergy 2 multimode plate reader (BioTek Instruments, VT, USA). Each MIC80 was determined using triplicate measurements for pools of 4 clones of each strain in three separate experiments.

[5] = test system: Y611 FHB3; assay: MIC80 determination, C. albicans clinical isolate Y611 FHB3; format: cell-based; conditions: Candida albicans, 24 h, pH 7
Protocol: as §3

[6] = test system: Y2411 Endog. ScCYP51; assay: MIC80 determination, strain Y2411; format: cell-based, S. cerevisiae; conditions: Saccharomyces cerevisiae
Protocol: as §3

[7] = test system: Y71 SC5314; assay: MIC80 determination, C. albicans clinical isolate Y71 SC5314; format: cell-based; conditions: Candida albicans
Protocol: as §3

[8] = test system: Y2374 OE CgCYP51; assay: MIC80 determination, strain Y2374; format: cell-based, S. cerevisiae; conditions: Saccharomyces cerevisiae
Protocol: as §3

[9] = test system: Y2459 OE CaCYP51 CaCpr; assay: MIC80 determination, strain Y2459; format: cell-based, S. cerevisiae
Protocol: as §3

[10] = test system: Y610 FHB1; assay: MIC80 determination, C. albicans clinical isolate Y610 FHB1; format: cell-based; conditions: Candida albicans; C. albicans clinical isolate Y610 FHB1 (weakly expresses CaCDR1); pH 7, 24 h
Protocol: as §3

[11] = test system: Y433 OE CgCDR1; assay: MIC80 determination, strain Y433; format: cell-based, S. cerevisiae; conditions: Saccharomyces cerevisiae
Protocol: as §3

[12] = test system: Y570 OE CaCDR1B; assay: MIC80 determination, strain Y570; format: cell-based, S. cerevisiae
Protocol: as §3

[13] = test system: Y525 OE CaMDR1a; assay: MIC80 determination, strain Y525; format: cell-based, S. cerevisiae
Protocol: as §3

[14] = test system: Y2301 OE ScCYP51 Y140F; assay: MIC80 determination, strain Y2301; format: cell-based, S. cerevisiae; conditions: Saccharomyces cerevisiae
Protocol: as §3

[15] = test system: Y2513 OE ScCYP51 Y140H; assay: MIC80 determination, strain Y2513; format: cell-based, S. cerevisiae; conditions: Saccharomyces cerevisiae
Protocol: as §3

[16] = test system: Y1; assay: MIC80 determination, C. albicans clinical isolate Y1; format: cell-based; conditions: Candida albicans, pH 7, 24 h
Protocol: as §3

[17] = Saccharomyces cerevisiae, 48 h, pH 6.8

## O=C(NCc1ccc(-c2ccccc2)cc1)C(Cn1cncn1)c1ccc(F)cc1F (stereo not shown) [Compound 37]
[1]
  zone of growth inhibition (inhibitory activity in words): low inhibitory activity
[2]
  zone of growth inhibition (inhibitory activity in words): low inhibitory activity
[3]
  zone of growth inhibition (inhibitory activity in words): low inhibitory activity

## O=C(NCC(O)(Cn1cncn1)c1ccc(F)cc1F)c1ccc(NC(=O)c2ccc(Cl)cc2)cc1 (stereo not shown) [Compound 26, 4-Chloro-N-(4-((2-(2,4-difluorophenyl)-2-hydroxy-3-(1H-1,2,4-triazol-1-yl)propyl)carbamoyl)phenyl)benzamide]
[4]; 48 h, pH 6.8
  MIC80: 0.182 ± 0.03 µM
[4]; read-out: MIC (nM) S. cerevisiae Y2300
  MIC: 182 ± 30 nM
[2]
  zone of growth inhibition (inhibitory activity in words): less effective
[5]
  MIC80: 19.5 µM
[6]; strain Y2411 Endog. ScCYP51, SD pH 6.8, 30 °C, 48 h
  MIC80: 0.039 ± 0.014 µM
[6]; supplement csv, read-out: MIC (nM) S. cerevisiae Y2411
  MIC: 39 ± 14 nM
[7]; SC5314, supplement csv
  MIC: 208 ± 83 nM
[7]; C. albicans clinical isolate Y71 SC5314, pH 7, 24 h
  MIC80: 0.208 ± 0.083 µM
[8]
  MIC80: 0.205 µM
[8]; read-out: MIC (nM) C. glabrate model Y2374
  MIC: 205 nM
[9]; [17]
  MIC80: 0.118 ± 0.003 µM
[9]; read-out: MIC (nM) C. albicans model Y2459
  MIC: 118 ± 3 nM
[10]
  MIC80: 0.95 µM
[11]
  MIC80: > 40 µM
[12]; Candida albicans, read-out: MIC (nM) C. albicans model Y570
  MIC: > 40000 nM
[12]; [17]
  MIC80: > 40 µM
[13]; [17]
  MIC80: > 1 µM
[13]; read-out: MIC (nM) C. albicans model Y525
  MIC: > 1000 nM
[14]; 48 h, pH 6.8
  MIC80: 0.123 ± 0.038 µM
[14]; read-out: MIC (nM) S. cerevisiae Y2301
  MIC: 123 ± 38 nM
[15]; 48 h, pH 6.8
  MIC80: 0.087 ± 0.004 µM
[15]; read-out: MIC (nM) S. cerevisiae Y2513
  MIC: 87 ± 4 nM
[16]
  MIC80: 0.285 µM

## O=C(NCc1ccc(-c2ccc(Cl)cc2)cc1)C(Cn1cncn1)c1ccc(F)cc1F (stereo not shown) [Compound 38]
[1]
  zone of growth inhibition (inhibitory activity in words): low inhibitory activity
[2]
  zone of growth inhibition (inhibitory activity in words): low inhibitory activity
[3]
  zone of growth inhibition (inhibitory activity in words): low inhibitory activity

## O=C(NCC(O)(Cn1cncn1)c1ccc(F)cc1F)c1cnc2ccccc2c1 (stereo not shown) [Compound 15, N-(2-(2,4-Difluorophenyl)-2-hydroxy-3-(1H-1,2,4-triazol-1-yl)propyl)quinoline-3-carboxamide]
[1]
  zone of growth inhibition (inhibitory activity in words): showed activity
[3]
  zone of growth inhibition (inhibitory activity in words): showed activity
